The target of assay [1] is c-Jun N-terminal kinase, JNK (Homo sapiens, UniProt P45983+P53779+P45984). As to the kind of experiment: Inhibition of PcJun phosphorylation in HepG2 cells. The assay is classed as functional, cell-based.
The target in assay [2] is Mitogen-activated protein kinase 8 (Homo sapiens, UniProt P45983). As to the kind of experiment: Inhibition of JNK1 by ATF2 phosphorylation assay. The assay is classed as functional.
For assay [3], the target named is Mitogen-activated protein kinase 9 (Homo sapiens, UniProt P45984). Description: Inhibition of JNK2 by ATF2 phosphorylation assay. In kind it is functional.
Sequence of Mitogen-activated protein kinase 9 (P45984 whole entry): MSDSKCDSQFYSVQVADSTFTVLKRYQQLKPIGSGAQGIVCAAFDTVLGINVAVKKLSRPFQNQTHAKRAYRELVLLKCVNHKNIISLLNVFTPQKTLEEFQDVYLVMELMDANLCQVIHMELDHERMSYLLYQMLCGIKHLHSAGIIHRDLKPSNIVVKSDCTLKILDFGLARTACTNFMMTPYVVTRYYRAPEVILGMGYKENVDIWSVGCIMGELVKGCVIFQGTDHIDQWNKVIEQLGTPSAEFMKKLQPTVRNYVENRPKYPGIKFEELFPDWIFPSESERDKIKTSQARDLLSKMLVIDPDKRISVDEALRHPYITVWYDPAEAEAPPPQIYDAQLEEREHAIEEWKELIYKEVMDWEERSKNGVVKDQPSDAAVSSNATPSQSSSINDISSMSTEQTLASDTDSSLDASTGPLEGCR

For one compound, IC50 results are on record in ChEMBL document CHEMBL1139733, “Aminopyridine carboxamides as c-Jun N-terminal kinase inhibitors: targeting the gatekeeper residue and beyond” (Bioorg Med Chem Lett, 2006).

Sequence of Mitogen-activated protein kinase 8 (P45983 whole entry): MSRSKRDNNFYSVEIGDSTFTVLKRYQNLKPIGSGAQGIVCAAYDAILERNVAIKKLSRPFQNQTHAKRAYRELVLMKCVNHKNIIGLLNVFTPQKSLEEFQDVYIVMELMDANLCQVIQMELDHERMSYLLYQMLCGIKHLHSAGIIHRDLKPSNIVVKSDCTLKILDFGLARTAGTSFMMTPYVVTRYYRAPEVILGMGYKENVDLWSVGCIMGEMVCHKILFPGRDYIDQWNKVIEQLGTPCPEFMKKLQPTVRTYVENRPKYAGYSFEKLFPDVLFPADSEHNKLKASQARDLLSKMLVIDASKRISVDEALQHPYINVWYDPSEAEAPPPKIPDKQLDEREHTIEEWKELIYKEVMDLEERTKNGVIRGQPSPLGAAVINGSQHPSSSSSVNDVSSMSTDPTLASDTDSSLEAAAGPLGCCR

With `CS(=O)(=O)c1ccc(CNC(=O)c2cc(N)c(C#N)c(/C=C/CCO)n2)cc1`, the IC50 in assay [1] amounted to 5300 nM; in assay [2] it was 170 nM; in assay [3], 240 nM.

As usually defined, the IC50 is the concentration that gives 50% inhibition. A higher IC50 goes with weaker potency.
